One assay has as its system MCF-7. Nature of the assay: Two-dose antiproliferative screening, SRB assay, MCF-7. The note with it: Homo sapiens, MCF7, 72 h, triplicates; for inhibition at 1 µM: read-out: Growth Inhibition (%) MCF-7 1 μM Average; for inhibition at 10 µM: read-out: Growth Inhibition (%) MCF-7 10 μM Average. The class given is cell-based. On the procedure: (§1) MCF-7(breast adenocarcinoma), PC-3 (prostate cancer) and COLO-205 (colorectal cancer) were obtained from Nawah Scientific inc., (Mokatam, Cairo, Egypt). Cells were maintained in Dulbecco’s Modified Eagle’s media (DMEM media) supplemented with […] of streptomycin, 100 units/mL of penicillin and 10% of heat-inactivated fetal bovine serum in humidified, 5% (v/v) CO2 atmosphere at 37 °C.
(§2) Cell viability was assessed by the sulforhodamine B (SRB) assay. Aliquots of cell suspension (5 × 10^3 cells, 100 μL) were transferred into 96 well plates and incubated in complete media for 24 h. Cells were treated with another aliquot media (100 μL) containing compounds 3a–f, 4a–f, 6a–f, 7a–f, 9a–b at concentrations of 1 and 10 μM). After 72 h of drug exposure, cells were fixed by replacing media with trichloroacetic acid (TCA, 10%, 150 μL) and incubated at 4 °C for 1 h. The TCA solution was removed, and the cells were washed five times with distilled water. Aliquots of SRB solution (0.4%w/v, 70 μL) were added and incubated in a dark place at room temperature for 10 min. Plates were washed three times with 1% acetic acid and allowed to air dry overnight. Then, a solution of TRIS base and TRIS HCl (TRIS buffer, 10 mM, 150 μL) was added to dissolve protein bound SRB stain. The absorbance was measured at 540 nm using BMGLABTECH®–FLUOstar omega micro-plate reader (Ortenberg, Germany).
For orientation: In SRB staining, fixed cells bind dye roughly in proportion to their protein.

The subject of another assay is COLO-205. As to the kind of experiment: Two-dose antiproliferative screening, SRB assay, COLO-205. Type of assay: cell-based, human. The note with it: triplicates; for inhibition at 1 µM / inhibition at 10 µM: Homo sapiens, COLO 205, 72 h; for inhibition at 1 µM: read-out: Growth Inhibition (%) COLO-205 1 μM Average; for inhibition at 10 µM: read-out: Growth Inhibition (%) COLO-205 10 μM Average. Here is the method:
as §1, §2

The test system of a further assay is PC-3. As to the kind of experiment: Two-dose antiproliferative screening, SRB assay, PC-3. The note with it: triplicates; for inhibition at 1 µM / inhibition at 10 µM: Homo sapiens, PC-3, 72 h; for inhibition at 1 µM: read-out: Growth Inhibition (%) PC-3 1 μM Average; for inhibition at 10 µM: read-out: Growth Inhibition (%) PC-3 10 μM Average; for Growth Inhibition (%) PC-3 10 μM Average: 72 h. Type of assay: cell-based. On the procedure: as §1, §2

One may read the inhibition as how much of the control response was suppressed. In the case of `COc1cc(/C=C2/C(=O)Nc3ccccc32)cc(OC)c1OC` [Compound 3a, (E)-3-(3,4,5-trimethoxybenzylidene)indolin-2-one], the inhibition at 1 µM amounted to 1.17% with MCF-7, 1.18% in the assay with COLO-205 and 1.92% with PC-3. The inhibition at 10 µM in the assay with MCF-7 was 3.44%; in the assay on COLO-205 (10 μM), 4.71%; in the assay on PC-3, 20.4%.
Regarding `COc1cc(/C=C2/C(=O)Nc3cc(Cl)ccc32)cc(OC)c1OC` [Compound 3b, (E)-6-chloro-3-(3,4,5-trimethoxybenzylidene)indolin-2-one], the inhibition at 1 µM worked out at 1.14% in the assay on MCF-7, 5.7% in the assay on COLO-205 and 7.69% in the assay on PC-3. Moreover, the inhibition at 10 µM in the assay on MCF-7 came to 41.2%; in the assay on COLO-205 (10 μM), 32.6%; with PC-3, 39%.
Consider `COc1cc(/C=C2/C(=O)Nc3ccc(Cl)cc32)cc(OC)c1OC` [Compound 3c, (E)-5-chloro-3-(3,4,5-trimethoxybenzylidene)indolin-2-one], for which the inhibition at 1 µM in the assay with MCF-7 stood at 1.06%; with COLO-205, 2.86%; with PC-3, 1.42%. Moreover, the values for the inhibition at 10 µM in the assay with MCF-7, with COLO-205 (10 μM) and in the assay on PC-3 were 8.56%, 6.41% and 14.3%, respectively.
With `COc1cc(/C=C2/C(=O)Nc3ccc(F)cc32)cc(OC)c1OC` [Compound 3d, (E)-5-fluoro-3-(3,4,5-trimethoxybenzylidene)indolin-2-one], the inhibition at 1 µM was 0.98% in the assay on MCF-7, 7.01% in the assay with COLO-205 and 2.02% in the assay with PC-3. Moreover, the inhibition at 10 µM in the assay on MCF-7 came out at 3.6%; with COLO-205 (10 μM), 11.8%; in the assay on PC-3, 1.91%.
On to `COc1ccc2c(c1)/C(=C\c1cc(OC)c(OC)c(OC)c1)C(=O)N2` [Compound 3e, (E)-5-methoxy-3-(3,4,5-trimethoxybenzylidene)indolin-2-one], for which the inhibition at 1 µM was 21% with MCF-7, 2.34% with COLO-205 and 32.9% in the assay with PC-3. Besides, the inhibition at 10 µM was 65.3% with MCF-7, 18.6% in the assay on COLO-205 (10 μM) and 52 to 72% in the assay on PC-3. For the same molecule, in the assay with PC-3, the “Growth Inhibition (%) PC-3 10 μM Average” value is on record as 61.38%.
Turning to `COc1cc(/C=C2/C(=O)Nc3ncccc32)cc(OC)c1OC` [Compound 3f, (E)-3-(3,4,5-trimethoxybenzylidene)-1,3-dihydro-2H-pyrrolo[2,3-b] pyridin-2-one], the inhibition at 1 µM worked out at 0.36% in the assay with MCF-7, 1.52% in the assay on COLO-205 and 1.29% in the assay on PC-3. For the same molecule, the inhibition at 10 µM was 4.53% in the assay on MCF-7, 9.13% in the assay on COLO-205 (10 μM) and 3.57% in the assay with PC-3.
On to `COc1cc(OC)c(/C=C2/C(=O)Nc3ncccc32)c(OC)c1` [Compound 4f, (E)-3-(2,4,6-trimethoxybenzylidene)-1,3-dihydro-2H-pyrrolo[2,3-b] pyridin-2-one], for which the inhibition at 1 µM with MCF-7 was 11.5%; in the assay with COLO-205, 7.64%; with PC-3, 23%. Also, the inhibition at 10 µM is 65.8% in the assay on MCF-7, 63.8% in the assay on COLO-205 (10 μM) and 69.1% in the assay with PC-3.
With `COc1cc(/C=C2/C(=O)N(Cc3ccccc3)c3ccccc32)cc(OC)c1OC` [Compound 6a, (E)-1-Benzyl-3-(3,4,5-trimethoxybenzylidene)indolin-2-one], the inhibition at 1 µM in the assay with MCF-7 stood at 1.74%; in the assay with COLO-205, 2.46%; with PC-3, 4.3%. Besides, the values for the inhibition at 10 µM in the assay with MCF-7, with COLO-205 (10 μM) and with PC-3 were 48.5%, 4.97% and 5.03%, respectively.
With `COc1cc(/C=C2/C(=O)N(Cc3ccc(Cl)cc3)c3ccccc32)cc(OC)c1OC` [Compound 6b, (E)-1-(4-Chlorobenzyl)-3-(3,4,5-trimethoxybenzylidene)indolin-2-one], the inhibition at 1 µM was found to be 1.13% with MCF-7, 3.9% in the assay on COLO-205 and 1.04% in the assay on PC-3. Also, the results for the inhibition at 10 µM in the assay on MCF-7, with COLO-205 (10 μM) and with PC-3 were 32.2%, 45.8% and 28.9%, respectively.
Turning to `COc1cc(/C=C2/C(=O)N(Cc3ccc(F)cc3)c3ccccc32)cc(OC)c1OC` [Compound 6c, (E)-1-(4-Fluorobenzyl)-3-(3,4,5-trimethoxybenzylidene)indolin-2-one], the inhibition at 1 µM in the assay with MCF-7 came to 5.68%; in the assay with COLO-205, 4.66%; with PC-3, 0.69%. In addition, the inhibition at 10 µM was found to be 25% in the assay on MCF-7, 13.6% in the assay on COLO-205 (10 μM) and 8.22% in the assay on PC-3.
For the molecule `COc1cc(/C=C2/C(=O)N(Cc3ccccc3)c3cc(Cl)ccc32)cc(OC)c1OC` [Compound 6d, (E)-1-benzyl-6-chloro-3-(3,4,5-trimethoxybenzylidene)indolin-2-one], the inhibition at 1 µM worked out at 0.68% in the assay on MCF-7, 2.38% in the assay with COLO-205 and 4.24% with PC-3. In addition, the results for the inhibition at 10 µM with MCF-7, in the assay with COLO-205 (10 μM) and in the assay with PC-3 were 48.4%, 8.68% and 7.34%, respectively.
Turning to `COc1cc(OC)c(/C=C2/C(=O)N(Cc3ccccc3)c3ccccc32)c(OC)c1` [Compound 7a, (E)-1-benzyl-3-(2,4,6-trimethoxybenzylidene)indolin-2-one], the results for the inhibition at 1 µM in the assay with MCF-7, in the assay with COLO-205 and with PC-3 were 0.6%, 11.9% and 0.65%, respectively. Moreover, the inhibition at 10 µM was found to be 15.3% in the assay with MCF-7, 20% in the assay on COLO-205 (10 μM) and 8.59% with PC-3.
As for `COc1cc(OC)c(/C=C2/C(=O)N(Cc3ccc(Cl)cc3)c3ccccc32)c(OC)c1` [Compound 7b, (E)-1-(4-chlorobenzyl)-3-(2,4,6-trimethoxybenzylidene)indolin-2-one], the inhibition at 1 µM in the assay on MCF-7 came out at 3.81%; in the assay with COLO-205 it was 3%; in the assay on PC-3 it was 1.05%. Also, the inhibition at 10 µM with MCF-7 is 5.48%; with COLO-205 (10 μM), 3.33%; in the assay on PC-3, 3.15%.
Regarding `COc1cc(OC)c(/C=C2/C(=O)N(Cc3ccc(F)cc3)c3ccccc32)c(OC)c1` [Compound 7c, (E)-1-(4-fluorobenzyl)-3-(2,4,6-trimethoxybenzylidene)indolin-2-one], the inhibition at 1 µM with MCF-7 turned out to be 4.08%; in the assay on COLO-205, 4.66%; with PC-3 it was 0.89%. The inhibition at 10 µM turned out to be 25.9% in the assay on MCF-7, 18.3% in the assay on COLO-205 (10 μM) and 13.8% in the assay with PC-3.
On to `COc1cc(OC)c(/C=C2/C(=O)N(Cc3ccccc3)c3cc(Cl)ccc32)c(OC)c1` [Compound 7d, (E)-1-benzyl-6-chloro-3-(2,4,6-trimethoxybenzylidene)indolin-2-one], for which the inhibition at 1 µM in the assay with MCF-7 was found to be 0.49%; with COLO-205, 2.38%; in the assay with PC-3 it was 1.47%. Also, the inhibition at 10 µM was determined as 40.5% with MCF-7, 15.6% with COLO-205 (10 μM) and 19.9% with PC-3.
Regarding `COc1cc(OC)c(/C=C2/C(=O)N(Cc3ccc(Cl)cc3)c3cc(Cl)ccc32)c(OC)c1` [Compound 7e, (E)-6-chloro-1-(4-chlorobenzyl)-3-(2,4,6-trimethoxybenzylidene) indolin-2-one], the inhibition at 1 µM came out at 1.59% with MCF-7, 3.82% in the assay with COLO-205 and 1.77% with PC-3. Besides, the results for the inhibition at 10 µM with MCF-7, in the assay on COLO-205 (10 μM) and with PC-3 were 46.2%, 22.1% and 52 to 72%, respectively. Besides, the “Growth Inhibition (%) PC-3 10 μM Average” value with PC-3 was determined as 51.68%.
In the case of `COc1cc(OC)c(/C=C2/C(=O)N(Cc3ccc(F)cc3)c3cc(Cl)ccc32)c(OC)c1` [Compound 7f, (E)-6-chloro-1-(4-fluorobenzyl)-3-(2,4,6-trimethoxybenzylidene) indolin-2-one], the inhibition at 1 µM was determined as 10.3% in the assay with MCF-7, 3.33% with COLO-205 and 0.75% in the assay on PC-3. Further, the inhibition at 10 µM with MCF-7 is 16%; with PC-3 it was 7.08%. The “Growth Inhibition (%) COLO-205 10 μM Average” value in the assay with COLO-205 (10 μM, 72 h) was 3.97%.

The values above are taken from article PMC8620390, “New Multi-Targeted Antiproliferative Agents: Design and Synthesis of IC261-Based Oxindoles as Potential Tubulin, CK1 and EGFR Inhibitors” (Pharmaceuticals, 2021).
